Results from ChEMBL document CHEMBL1147247, “New cytotoxic sesterterpenoids and norsesterterpenoids from two sponges of the genus Sarcotragus” (2003).
≈ marks a conversion by molar mass, not a printed value.

Tests used:
Assay type in all cases: functional
Conditions in all cases: read-out: ED50 (the source's name)
A549 = test: Cytotoxicity against human A549 cells
SK-OV-3 = test: Cytotoxicity against human SKOV3 cells
SK-MEL-2 = test: Cytotoxicity against human SK-MEL-2 cells
XF498 = test: Cytotoxicity against human XF498 cells
HCT-15 = test: Cytotoxicity against human HCT15 cells

C/C(=C\CCc1ccoc1)C[C@@H]1C=C(C/C=C/c2ccoc2)C(=O)O1
EC50 (A549): 7.9 mg/L (≈ 23.3 µM)
EC50 (SK-OV-3): 32.3 mg/L (≈ 95.4 µM)
EC50 (SK-MEL-2): 4.5 mg/L (≈ 13.3 µM)
EC50 (XF498): 11.8 mg/L (≈ 34.9 µM)
EC50 (HCT-15): 4.2 mg/L (≈ 12.4 µM)

COC1C=C(CCC/C(C)=C/C=C/[C@@H](C)CC/C=C(/C)C[C@H]2OC(=O)C(C)=C2O)C(=O)O1 (stereo not given in full)
EC50 (A549): > 30 mg/L
EC50 (SK-OV-3): > 30 mg/L
EC50 (SK-MEL-2): 10.9 mg/L (≈ 24.5 µM)
EC50 (XF498): > 30 mg/L
EC50 (HCT-15): 33 mg/L (≈ 74.2 µM)

COc1cccc2c1C(=O)c1c(O)c3c(c(O)c1C2=O)C[C@@](O)(C(=O)CO)C[C@@H]3O[C@H]1C[C@H](N)[C@H](O)[C@H](C)O1 [DOXORUBICIN]
EC50 (A549): 0.04 mg/L (≈ 0.0736 µM)
EC50 (SK-OV-3): 0.15 mg/L (≈ 0.276 µM)
EC50 (SK-MEL-2): 0.06 mg/L (≈ 0.11 µM)
EC50 (XF498): 0.19 mg/L (≈ 0.35 µM)
EC50 (HCT-15): 0.24 mg/L (≈ 0.442 µM)

CC1=C(O)[C@@H](C/C(C)=C\CC[C@H](C)/C=C/C=C(\C)CCCC2=CC(=O)N(CC(=O)[O-])C2)OC1=O.[Na+] [ISOSARCOTRINE E]
EC50 (A549): > 30 mg/L
EC50 (SK-OV-3): > 30 mg/L
EC50 (SK-MEL-2): > 30 mg/L
EC50 (XF498): > 30 mg/L
EC50 (HCT-15): > 30 mg/L

COC(=O)[C@H](O)C/C(C)=C\CC[C@H](C)/C=C/C=C(\C)CCCC1=CC(=O)O[C@H]1O [SARCOTIN N]
EC50 (A549): 19.4 mg/L (≈ 47.7 µM)
EC50 (SK-OV-3): > 30 mg/L
EC50 (SK-MEL-2): 10.9 mg/L (≈ 26.8 µM)
EC50 (XF498): > 30 mg/L
EC50 (HCT-15): 21.7 mg/L (≈ 53.4 µM)

CC(=O)C(O)C(O)C/C(C)=C\CC[C@H](C)/C=C/C=C(\C)CCCC1=CC(=O)OC1O (stereo not given in full) [SARCOTIN O]
EC50 (A549): 6.8 mg/L (≈ 16.2 µM)
EC50 (SK-OV-3): 14.9 mg/L (≈ 35.4 µM)
EC50 (SK-MEL-2): 3 mg/L (≈ 7.13 µM)
EC50 (XF498): 11.5 mg/L (≈ 27.3 µM)
EC50 (HCT-15): 4.6 mg/L (≈ 10.9 µM)

CC1=C(O)[C@@H](C/C(C)=C\CC[C@H](C)/C=C/C=C(\C)CCCC2=CCN(CC(=O)[O-])C2=O)OC1=O.[Na+] [SARCOTRINE E]
EC50 (A549): > 30 mg/L
EC50 (SK-OV-3): > 30 mg/L
EC50 (SK-MEL-2): > 30 mg/L
EC50 (XF498): > 30 mg/L
EC50 (HCT-15): > 30 mg/L
